Data as given in patent US9511091B2, “Rare earth metal compounds, methods of making, and methods of using the same” (Spectrum Pharmaceuticals, Inc., priority 2002, dated 2016).

Assays:
[1] = reactivity with respect to phosphate: phosphate removal from pH 3 Na2HPO4/HCl stock solution; assay type: binding; conditions: for rate of removal of phosphate compared with LaOCl of Example 1: FIG. 14, pH 3; for Initial 1st order rate constant k1: calculated from the experimental points for the first minute of the reaction, pH 3; for Fraction of PO4 remaining after 10 min: pH 3 stock solution, La 3 times the stoichiometric amount
Description: A desirable lanthanum carbonate hydroxide is LaCO3OH. […] To determine the reactivity of the lanthanum carbonate hydroxide compound with respect to phosphate, the following procedure was used. A stock solution containing 13.75 g/l of anhydrous Na2HPO4 and 8.5 g/l of HCl is prepared. The stock solution is adjusted to pH 3 by the addition of concentrated HCl. 100 ml of the stock solution is placed in a beaker with a stirring bar. A sample of lanthanum carbonate hydroxide powder is added to the solution. The amount of lanthanum carbonate hydroxide powder is such that the amount of La in suspension is 3 times the stoichiometric amount needed to react completely with the phosphate. Samples of the suspension are taken at intervals, through a filter that separated all solids from the liquid. The liquid sample is analyzed for phosphorous.
(§1) To determine the reactivity of the lanthanum compound with respect to phosphate, the following test was conducted. A stock solution containing 13.75 g/l of anhydrous Na2HPO4 and 8.5 g/l of HCl was prepared. The stock solution was adjusted to pH 3 by the addition of concentrated HCl. An amount of 100 ml of the stock solution was placed in a beaker with a stirring bar. The lanthanum oxychloride from above was added to the solution to form a suspension. The amount of lanthanum oxychloride was such that the amount of La in suspension was 3 times the stoichiometric amount needed to react completely with the phosphate. Samples of the suspension were taken at time intervals, through a filter that separated all solids from the liquid. The liquid sample was analyzed for phosphorous.
as §1, with “Lanthanum carbonate hydroxide powder made as described” for “The lanthanum oxychloride from”, “solution.” for “solution to form a suspension.”, “carbonate hydroxide powder” for “oxychloride”, “intervals” for “intervals,”
(§2) To determine the reactivity of this lanthanum compound with respect to phosphate, the following test was conducted. A stock solution containing 13.75 g/l of anhydrous Na2HPO4 and 8.5 g/l of HCl was prepared. The stock solution was adjusted to pH 3 by the addition of concentrated HCl. An amount of 100 ml of the stock solution was placed in a beaker with a stirring bar. Anhydrous lanthanum oxycarbonate made as described above, was added to the solution. The amount of anhydrous lanthanum oxycarbonate was such that the amount of La in suspension was 3 times the stoichiometric amount needed to react completely with the phosphate. Samples of the suspension were taken at intervals, through a filter that separated all solids from the liquid. The liquid sample was analyzed for phosphorous.
as §2, with “reactivity of the lanthanum compound” for “reactivity of this lanthanum compound”, “stirring bar. La2CO5 powder, made as” for “stirring bar. Anhydrous lanthanum oxycarbonate made as”, “amount of lanthanum oxycarbonate” for “amount of anhydrous lanthanum oxycarbonate”, “taken at intervals through a” for “taken at intervals, through a”

[2] = specific surface area by the BET method; assay type: physicochemical
Description: For each sample, the surface area measured by the BET method and the fraction of phosphate remaining after 10 min of reaction have been tabulated. […] The rate constant k1 is defined by the following equation: d[PO4]/dt=−k1[PO4]
An aqueous HCl solution having a volume of 334.75 ml and containing LaCl3 (lanthanum chloride) at a concentration of 29.2 wt % as La2O3 was added to a 4 liter beaker and heated to 80° C. with stirring. The initial pH of the LaCl3 solution was 2.2. Two hundred and sixty five ml of an aqueous solution containing 63.59 g of sodium carbonate (Na2CO3) was metered into the heated beaker using a small pump at a steady flow rate for 2 hours. Using a Buchner filtering apparatus fitted with filter paper the filtrate was separated from the white powder product. The filter cake was mixed four times, each with 2 liters of distilled water and filtered to wash away the NaCl formed during the reaction. The washed filter cake was placed into a convection oven set at 105° C. for 2 hours or until a stable weight was observed. […] The surface area of the product was determined by the BET method. The test was repeated 3 times and slightly different surface areas and different reaction rates were obtained as shown in Table 1.

[3] = binding efficiency test, spiked water; conditions: 0.50 g in 30.0 ml spike solution, approximately 1 mg/l of each element, 18 hrs, room temperature
Description: Tests were run to determine the binding efficiency of eight different compounds for twenty-four different elements.
The main objective of the tests was to investigate the efficiency at which the compounds bind arsenic and selenium, in view of their use in removing those elements from drinking water. Twenty-one different anions were also included to explore further possibilities. The tests were performed as follows:
The compounds given in Table 6 were added to water and a spike and were vigorously shaken at room temperature for 18 hrs. The samples were filtered and the filtrate analyzed for a suite of elements including Sb, As, Be, Cd, Ca, Cr, Co, Cu, Fe, Pb, Mg, Mn, Mo, Ni, Se, Tl, Ti, V, Zn, Al, Ba, B, Ag, and P.
2. Add standard solutions of the elements given above to make solutions containing approximately 1 mg/l of each element.
1. Weigh 0.50 g of each compound into its own 50 ml centrifuge tube.
2. Add 30.0 ml of the spike solution to each.
3. Cap tightly and shake vigorously for 18 hrs.
4. Filter solution from each centrifuge tube through 0.2 µm syringe filter. Obtain about 6 ml of filtrate.
5. Dilute filtrates 5:10 with 2% HNO3. Final Matrix is 1% HNO3.

[4] = after 10 min, pH 3, La 3 times the stoichiometric amount

SMILES | Initial 1st order rate constant k1 [1] [min⁻¹] | Fraction of PO4 remaining after 10 min [1] | BET surface area [2] [m^2/g] | % Analyte Removed As [3] [%] | % Analyte Removed Be [3] [%] | % Analyte Removed Ca [3] [%] | % Analyte Removed Cd [3] [%] | % Analyte Removed Co [3] [%] | % Analyte Removed Cr [3] [%] | % Analyte Removed Cu [3] [%] | % Analyte Removed Fe [3] [%] | % Analyte Removed Mg [3] [%] | % Analyte Removed Mn [3] [%] | % Analyte Removed Pb [3] [%] | % Analyte Removed Sb [3] [%] | further results
O.O=C([O-])[O-].O=C([O-])[O-].O=C([O-])[O-].[La+3].[La+3] [Sample 10, La2(CO3)3•1H2O, reference compound] | 0.094 | 0.790 | 2.9 |  |  |  |  |  |  |  |  |  |  |  |  | rate of removal of phosphate compared with LaOCl of Example 1 [1]: faster at the beginning but slower after about 3 minutes
O=C([O-])[O-].[La+3].[La+3].[O-2].[O-2] [Sample 8, La2CO5] | 0.434 | 0.483 | 11.9 |  |  |  |  |  |  |  |  |  |  |  |  | 
O=C([O-])[O-].O=C([O-])[O-].[Ti+4] [Ti(CO3)2, Ti carbonate] |  |  |  | 93 | 100 | 99 | 100 | 99 | 99 | 98 | 100 | 79 | 100 | 98 | 96 | % Analyte Removed As ([3]; listed as compound 5): most efficient
O=C([O-])[O-].[La+3].[OH-] [Sample 1, LaCO3OH] | 0.949 | 0.130 | 41.3 |  |  |  |  |  |  |  |  |  |  |  |  | 
[O]=[Ti]=[O] [TiO2] |  |  |  | 93 | 8 | 0 | 4 | 0 | 6 | 11 | 49 | 0 | 1 | 97 | 96 | % Analyte Removed As ([3]; listed as compound 6): most efficient
O=C([O-])[O-].[La+3].[La+3].[O-2].[O-2] [Sample 7, La2O2CO3] | 0.36 | 0.327 | 16.5 |  |  |  |  |  |  |  |  |  |  |  |  | 
O.O.O.O.O=C([O-])[O-].O=C([O-])[O-].O=C([O-])[O-].[La+3].[La+3] [La2(CO3)3•4H2O, reference compound] |  |  |  | 25 | 41 | 28 | 37 | 20 | 94 | 0 | 56 | 0 | 20 | 90 | 84 | rate of removal of phosphate compared with LaOCl of Example 1 [1]: faster at the beginning but slower after about 3 minutes; capacity of phosphate removal (PO4 removed/g of La compound) [1, 4]: 45 mg PO4/g; phosphate in solution removed [1, 4]: 38%; % Analyte Removed As ([3]; listed as Commercial lanthanum carbonate): less effective
[O]=[La][Cl] [LaOCl, lanthanum oxychloride] |  |  |  | 76 | 89 | 0 | 46 | 28 | 100 | 88 | 100 | 0 | 28 | 99 | 86 | relationship between the amount of phosphate bound or absorbed and time ([1]; compared with commercial hydrated lanthanum carbonates): closer to linear
O=C([O-])[O-].[La+3].[OH-] [Sample 3, LaCO3OH] | 0.837 | 0.171 | 38.8 |  |  |  |  |  |  |  |  |  |  |  |  | 
[La+3].[La+3].[O-2].[O-2].[O-2] [La2O3] |  |  |  | 85 | 97 | 21 | 95 | 69 | 100 | 89 | 92 | 0 | 94 | 92 | 89 | 
O=C([O-])[O-].[La+3].[La+3].[O-2].[O-2] [Sample 6, La2CO5] | 0.391 | 0.308 | 18.8 |  |  |  |  |  |  |  |  |  |  |  |  | 
O=C([O-])[O-].[La+3].[La+3].[O-2].[O-2] [Sample 4, La2CO5] | 0.545 | 0.275 | 25.6 |  |  |  |  |  |  |  |  |  |  |  |  | 
O=C([O-])[O-].[La+3].[OH-] [Sample 2, LaCO3OH] | 0.929 | 0.153 | 35.9 |  |  |  |  |  |  |  |  |  |  |  |  | 
O=C([O-])[O-].[La+3].[La+3].[O-2].[O-2] [Sample 5, La2O2CO3] | 0.483 | 0.278 | 18 |  |  |  |  |  |  |  |  |  |  |  |  | 
